From patent US8293979B2, “Weed controller metabolism proteins, genes, thereof and use of the same” (Sumitomo Chemical Company, Limited, priority 2001, dated 2012)

Experiments:
Blackgrass = assay: Herbicidal activity test, soil surface treatment; format: in vivo, Alopercurus myosuroides; parameters: key: 0: situations in which the condition of sprouting or vegetation at the time of examination of the plant utilized for the test was compared with and showed totally or substantially no difference with that of the untreated application; 10: situations in which the plant completely withered or the sprouting or vegetation was completely suppressed; conditions: 500 g/ha, sprayed onto the surface of the soil after seeding, investigated after 19 days in a greenhouse
Procedure: Soil was packed into a round plastic pot having a diameter of 10 cm and depth of 10 cm. Barnyardgrass, Blackgrass, Ivyleaf morningglory were seeded. Five (5) parts of the test compound, 6 parts of sorpol3005X (Toho Chemical Company) and 89 parts of xylene were well mixed to produce an emulsion. A certain amount thereof was diluted with water containing 0.1% (v/v) of a sticking agent at a proportion of 1000 L for 1 hectare and was spread uniformly with a spray-gun onto the surface of the soil. After cultivating the plants for 19 days in a greenhouse, the herbicidal activity was investigated.
In the above Tables 3 and 4, the strength of the herbicidal activity is shown stepwise as 0, 1, 2, 3, 4, 5, 6, 7, 8, 9, and 10.

[1] = system: leaf pieces derived from the tobacco to which the control DNA (T-DNA region of plasmid pBI121S) was introduced; assay: Herbicidal damage of tobacco leaf pieces on MS agar medium containing compound (II); format: cell-based, Nicotiana tabacum strain SR1; conditions: MS agar medium containing 0.1 mg/L of compound (II), in the light at room temperature, 7th day of culturing
Procedure: Then, according to the method described in Manual for Gene Manipulation of Plant (by Hirofumi UCHIMIYA, Kodan-sha Scientific, 1992), the gene was introduced into tobacco. Agrobacterium strains bearing the above plasmids were each cultured at 28° C. overnight in LB medium containing 300 mg/L streptomycin, 100 mg/L rifampicin and 25 mg/L kanamycin, and then leaf pieces of tobacco (Nicotiana tabacum strain SR1) cultured sterilely were dipped in the liquid culture medium. The leaf pieces were planted and cultured at room temperature for 2 days in the light in MS agar medium (MS inorganic salts, MS vitamins, 3% sucrose and 0.8% agar; described in Murashige T. and Skoog F., Physiol. Plant. (1962) 15, p 473) containing 0.1 mg/L of naphthalene acetic acid and 1.0 mg/L of benzyl aminopurine. Then, the leaf pieces were washed with sterilized water and cultured for 7 days on MS agar medium containing 0.1 mg/L of naphthalene acetic acid, 1.0 mg/L of benzyl aminopurine and 500 mg/L of cefotaxime. Next, the leaf pieces were transplanted and cultured in MS agar medium containing 0.1 mg/L of naphthalene acetic acid, 1.0 mg/L of benzyl aminopurine, 500 mg/L of cefotaxime and 100 mg/L of kanamycin. The culture was conducted continuously for 4 months while transplanting the leaf pieces to fresh medium of the same composition at intervals of 4 weeks. […]

[2] = system: present invention protein (A15); assay: Detection of the ability to convert compound (II) to compound (III), E. coli pKSN1555AF extract; format: in vitro ADME, Streptomyces olivochromogenes IFO 12444; conditions: 3 ppm of compound (II) labeled with 14C, components A, B, 10 minutes at 30° C.
Procedure: Reaction solutions of 30 μl were prepared and maintained for 10 minutes at 30° C. The reaction solutions consisted of a 0.1M potassium phosphate buffer (pH7.0) containing 3 ppm of compound (II) labeled with ^14C, 2 mM of β-NADPH (hereinafter, referred to as “component A”) (Oriental Yeast Company), 2 mg/ml of a ferredoxin derived from spinach (hereinafter referred to as “component B”) (Sigma Company), 0.1 U/ml of ferredoxin reductase (hereinafter, referred to as “component C”) (Sigma Company) and 23 μl of the supernatant fraction recovered in Example 32(2). Similarly to Example 4(3), the reaction solutions after the maintenance were extracted with ethyl acetate and the extracted layers were TLC analyzed. […] A spot corresponding to compound (III) was detected from the reaction solution containing E. coli pKSN849AF extract. In contrast, such a spot was not detected from the reaction solution containing E. coli pKSN2 extract.
Reaction solutions of 30 μl were prepared and maintained for 10 minutes at 30° C. […] The reaction solutions after the maintenance were extracted with ethyl acetate and the extracted layers were TLC analyzed. […] A spot corresponding to compound (III) was detected from the reaction solution containing E. coli pKSN1555AF extract. In contrast, such a spot was not detected from the reaction solution containing E. coli pKSN2 extract.

[3] = system: present invention protein (A24); assay: Metabolism of compounds by the present invention protein (A24), reaction solution, HPLC; format: in vitro ADME, Streptomyces rutgersensis IFO 15875T; conditions: 12.5 ppm of compound, components A, B, C, 20 μl supernatant fraction of Example 65(2), 30° C. for 10 minutes

C[C@@H](Oc1cc(-n2c(=O)cc(C(F)(F)F)n(C)c2=O)c(F)cc1Cl)C(=O)O [compound (II)] was tested, and the “Herbicidal Activity Blackgrass” value (Blackgrass) was 10, the “herbicidal damage of the leaf pieces” value [1] was “turned white and withered” and the “spot corresponding to compound (III) labeled with 14C (TLC)” value [2] was “detected”.

In the case of Cn1c(C(F)(F)F)cc(=O)n(-c2cc(Oc3cccnc3OCC(=O)O)c(Cl)cc2F)c1=O [compound (XII)], the “concentration of the compound detected from metabolism solution (A24) compared to control solution (A24)” value [3] is reported as “lower”.
